Results published in US8664267B2 (Academic Pharmaceuticals Incorporated, priority 2007, dated 2014).

Assays:
dog = conditions: Torres-Arrault et al. 1984, cited from earlier work
[1] = administered intravenously; cited from earlier work

| SMILES | cardiac depressant effect (dog) | hypotension (dog; dog) | dose-dependent suppression of arrhythmias compared with the saline control group (Coronary Occlusion (Rat)) | onset of action and hemodynamic and electrophysiological effect [1] |
| --- | --- | --- | --- | --- |
| CCCCCCCC/C=C\CCCCCCCC(=O)OCCOCC(OCCO)C1OCC(OCCO)C1OCCO (stereo not shown) [Tween-80, polysorbate 80] | potent cardiac depressant | causes hypotension |  |  |
| CCCCc1oc2ccccc2c1C(=O)c1cc(I)c(OCCN(CC)CC)c(I)c1 [amiodarone, 2-n-butyl-3-(3,5-diiodo-4-β-N-diethylaminoethoxy-benzoyl)benzofuran] |  |  | significantly different | rapid onset of action causing profound hemodynamic and electrophysiological effect |
